US20240262848A1, “HETEROCYCLIC COMPOUNDS, COMPOSITIONS THEREOF, AND METHODS OF TREATMENT THEREWITH” (BeiGene, Ltd., priority 2022, published 2024)

Columns and labels:
[1] = molecular target: GST-tagged GDP-loaded KRAS G12V (amino acids 1-169) (Homo sapiens, UniProt P01116, G12V); experiment: KRAS G12V probe displacement assay (TR-FRET); format: binding; settings: Table 4; KRAS G12V 2 nM, biotinylated probe 2 2.5 nM
Protocol: Plates are incubated at 24 °C for 1 hr. […] After 1 hr incubation at 24° C.

[2] = tested on: pERK1/2(THR202/TYR204) level in SW620 cell line; experiment: KRAS G12V pERK assay in SW620 cells (HTRF); format: cell-based; settings: Homo sapiens, SW-620, Table 4, 2 hrs compound treatment
Summary of the method: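 SW620 cells were treated for 2 h with a 10-point dilution series (final 0–10 μM) after overnight seeding. Lysates were then incubated overnight at room temperature with Eu3+-cryptate and acceptor anti-phospho-ERK1/2 antibodies, and HTRF was read at 655 nm. IC50 was fitted from percent inhibition versus log concentration.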

[3] = molecular target: GST-tagged GDP-loaded KRAS G12D (amin acids 1-188) (Homo sapiens, UniProt P01116, G12D); experiment: KRAS G12D probe displacement assay (TR-FRET); format: binding; settings: Table 5; KRAS G12D 0.5 nM, biotinylated probe 2 4 nM
Protocol: Plates are incubated at 24° C. for 1 hr.

[4] = tested on: pERK1/2(THR202/TYR204) level in AsPC-1 cell line; experiment: KRAS G12D pERK assay in AsPC-1 cells (HTRF); format: cell-based; settings: Homo sapiens, ASPC1, Table 5, 2 h compound treatment
Protocol: AsPC-1 cell line was used in this study. Cells were maintained in RPMI-1640 supplemented with 10% fetal bovine serum (Thermo Fisher), 50 units/ml, penicillin and streptomycin (Thermo Fisher) and kept at 37° C. in a humidified atmosphere of 5% CO2 in air. Cells were reinstated from frozen stocks that were laid down within 30 passages from the original cells purchased. 30000 cells per well were seeded into a 96-well plate and incubated overnight. Cells were treated with a 10-point dilution series. The final compound concentration is from 0 to 10 μM. After 2 h compound treatment, cells were lysed, and the pERK1/2(THR202/TYR204) level in the cell lysates was detected by HTRF kit (Cisbio). In brief, a total of 16 μL of cell lysate from each well of a 96-well plate was transferred to a 384-well white assay plate. Lysate from each well was incubated with 2 μL of Eu3+-cryptate (donor) labeled anti-phospho-ERK1/2 and 2 μL of D2 (acceptor) labeled anti-phospho-ERK1/2 antibodies (Cisbio) overnight in dark at room temperature. When the donor and acceptor are in close proximity, excitation of the donor with laser triggers a Fluorescence Resonance Energy Transfer (FRET) towards the acceptor, which in turn fluoresces at 655 nm wavelength. FRET signals were measured using a PHERAstar FSX reader (BMG Labtech). IC50 determination was performed by fitting the curve of percent inhibition versus the log of the inhibitor concentration using Dotmatics.

Sequence of GST-tagged GDP-loaded KRAS G12V (amino acids 1-169) (P01116 1-169 isoform P01116-2 G12V): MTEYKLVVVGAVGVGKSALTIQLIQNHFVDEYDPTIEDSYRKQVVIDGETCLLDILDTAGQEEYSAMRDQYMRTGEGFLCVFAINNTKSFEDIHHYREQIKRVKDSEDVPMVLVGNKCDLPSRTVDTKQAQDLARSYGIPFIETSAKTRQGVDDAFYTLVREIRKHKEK
Sequence of GST-tagged GDP-loaded KRAS G12D (amin acids 1-188) (P01116 1-188 isoform P01116-2 G12D): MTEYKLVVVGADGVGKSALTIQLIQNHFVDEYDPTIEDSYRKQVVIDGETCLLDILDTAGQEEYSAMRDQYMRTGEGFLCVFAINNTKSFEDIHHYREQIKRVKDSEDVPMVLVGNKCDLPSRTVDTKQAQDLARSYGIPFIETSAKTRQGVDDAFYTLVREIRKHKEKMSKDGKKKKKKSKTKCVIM

Compound | IC50 [1] | IC50 [2] | IC50 [3] | IC50 [4]
CN1c2nc(OC[C@@]34CCCN3C[C@H](F)C4)nc3c(F)c(-c4cc(N)cc(Cl)c4C(F)(F)F)nc(c23)O[C@@H]2CCOC[C@H]21 [Example 51, 3-chloro-5-((7aR,11aR)-4-fluoro-2-(((2R,7aS)-2-fluorotetrahydro-1H-pyrrolizin-7a(5H)-yl)methoxy)-12-methyl-7a, 8,11a, 12-tetrahydro-9H, 11H-7,10-dioxa-1,3,6,12-tetraazapleiaden-5-yl)-4-(trifluoromethyl)aniline] | 0.5 nM | 9.3 nM | 0.28 nM | 30 nM
Cc1cc(N)cc(-c2nc3c4c(nc(OC[C@@]56CCCN5C[C@H](F)C6)nc4c2F)N(C)[C@@H]2COCC[C@H]2O3)c1C(F)(F)F [Example 61, 3-((7aR,11aR)-4-fluoro-2-(((2R,7aS)-2-fluorotetrahydro-1H-pyrrolizin-7a(5H)-yl)methoxy)-12-methyl-7a, 8,11a, 12-tetrahydro-9H, 11H-7,10-dioxa-1,3,6,12-tetraazapleiaden-5-yl)-5-methyl-4-(trifluoromethyl)aniline] | 0.8 nM | 22 nM | 0.57 nM | 23 nM
C=C1CN2CCC[C@@]2(COc2nc3c4c(nc(-c5cc(N)cc(Cl)c5C(F)(F)F)c(F)c4n2)O[C@H]2COCC[C@@H]2N3C)C1 [Example 62, 3-chloro-5-((7aR,11aS)-4-fluoro-12-methyl-2-(((S)-2-methylenetetrahydro-1H-pyrrolizin-7a(5H)-yl)methoxy)-7a, 8,10,11,11a, 12-hexahydro-7,9-dioxa-1,3,6,12-tetraazapleiaden-5-yl)-4-(trifluoromethyl)aniline] | 0.25 nM | 5.5 nM | 0.23 nM | 12 nM
CN1CCC[C@@]2(COc3nc4c5c(nc(-c6cc(N)cc(Cl)c6C(F)(F)F)c(F)c5n3)O[C@H]3COCC[C@@H]3N4C)CCC[C@@H]12 [Example 64, 3-chloro-5-((7aR,11aS)-4-fluoro-12-methyl-2-(((4aS,7aR)-1-methyloctahydro-4aH-cyclopenta[b]pyridin-4a-yl)methoxy)-7a, 8,10,11,11a, 12-hexahydro-7,9-dioxa-1,3,6,12-tetraazapleiaden-5-yl)-4-(trifluoromethyl)aniline] | 0.25 nM | 6.4 nM | 0.1 nM | 7.9 nM
Cc1cc(N)cc(-c2nc3c4c(nc(OC[C@]56CCC[C@H]5N(C)CCC6)nc4c2F)N(C)[C@H]2CCOC[C@@H]2O3)c1C(F)(F)F [Example 65, 3-((7aR,11aS)-4-fluoro-12-methyl-2-(((4aS,7aR)-1-methyloctahydro-4aH-cyclopenta[b]pyridin-4a-yl)methoxy)-7a, 8,10,11,11a, 12-hexahydro-7,9-dioxa-1,3,6,12-tetraazapleiaden-5-yl)-5-methyl-4-(trifluoromethyl)aniline] | 0.47 nM | 8.9 nM | 0.27 nM | 17 nM
